Assay results taken from patent publication US20160053226A1, “Method and Medium for Amplifying Neural Precursor Cells” (INSERM (INSTITUT NATIONAL DE LA SANTÉ ET DE LA RECHERCHE …, priority 2013, published 2016).

Experiments:
neural precursors [1] = assay: Kinase inhibitor library screening for sustaining neural precursor proliferation (Ki67, EdU incorporation); assay type: cell-based, human; conditions: SA001-derived neural precursors, N2B27 without growth factors, day 7, compared to DMSO-treated cells
Method: Cells were fixed with 4% PFA for 15 min at 4° C. then permeabilized using a PBS/0.3% Triton X100 solution, 10 min at RT. Incubation with primary antibodies was performed. AlexaFluor secondary antibodies and DAPI counterstaining were applied for 1 h at room temperature. Detection was performed using a Zeiss Inverted microscope or the Arrayscan automated microscope.
A homogeneous population of neural precursors was produced after conversion of SA001 PSC line into neural cells and further amplification using EFB medium until passage 8. The stable neural precursors were seeded in 384 well-plates using Agilent BRAVO automate in N2B27 without growth factors. Six hours post-seeding, cells were treated with Enzo Life Sciences Kinase inhibitors library (BML-2832), a collection of 80 different kinase inhibitors. Another treatment was performed at day 4 and the percentage of proliferative precursors was quantified at day 7 using Ki67 and EdU incorporation. SOX2 was used as a neural marker.

neural precursors [2] = assay: Terminal differentiation into neurons of amplified neural precursors; assay type: cell-based, human; conditions: amplified for 5 passages, compared to EFB medium
From the text: Terminal differentiation into neurons was induced by plating neural precursors on poly-ornithin/laminin at a density of 50,000 cells/cm^2 in N2B27 medium. Medium was changed every 4 days.
We next measured the ability of neural precursors amplified using the PKA inhibitor HA1004 for 5 passages to produce neurons. This was compared to the production of neurons obtained from precursor amplified using EFB medium as a reference.

SMILES | neural precursor self-renewal (percentage of Ki67 positive cells) (neural precursors [1]) | ability of amplified neural precursors to produce neurons (neural precursors [2])
CC1CNCCN1S(=O)(=O)c1cccc2cnccc12 (centres unmarked) [H7] | sustained neural precursor self-renewal | –
CNCCNS(=O)(=O)c1cccc2cnccc12 [H8] | sustained neural precursor self-renewal | –
NCCNS(=O)(=O)c1cccc2cnccc12 [H9] | sustained neural precursor self-renewal | –
Cl.N=C(N)NCCNS(=O)(=O)c1cccc2cnccc12 [HA1004, N-(2′-Guanidinoethyl)-5-isoquinolinesulfonamide.HCl] | – | did not impact on their ability to produce neurons
O=S(=O)(c1cccc2cnccc12)N1CCCNCC1 [HA1077] | sustained neural precursor self-renewal | –
